Experimental data published in ChEMBL document CHEMBL1147847, “Evaluation of electronic, lipophilic and membrane affinity effects on antiproliferative activity of 5-substituted-2-(2,4-dihydroxyphenyl)-1,3,4-thiadiazoles against various human cancer cells” (2007).

Columns and labels:
Type in all cases: functional
[1] = Antiproliferative activity against human HCV29T cells by SRB method
T47D = assay: Antiproliferative activity against human T47D cells by SRB method
[2] = Antiproliferative activity against human SW707 cells by SRB method
A549 = assay: Antiproliferative activity against human A549 cells by SRB method

Structure (SMILES) | log(1/ID50) [1] | log(1/ID50) (T47D) | log(1/ID50) [2] | log(1/ID50) (A549)
OCCCc1nnc(-c2ccc(O)cc2O)s1 | -2.232 |  |  | 
Oc1ccc(-c2nnc(-c3ccccc3)s2)c(O)c1 | -2.276 |  |  | 
Oc1ccc(-c2nnc(-c3ccc(O)cc3O)s2)c(O)c1 | -2.045 |  |  | 
Oc1ccc(-c2nnc(-c3ccc(-c4ccccc4)cc3)s2)c(O)c1 | -1.693 | -1.407 | -1.161 | -1.28
Oc1ccc(-c2nnc(Cc3ccccc3)s2)c(O)c1 | -2.09 |  |  | 
Oc1ccc(-c2nnc(Cc3cccc4ccccc34)s2)c(O)c1 | -1.923 | -1.629 | -1.926 | -1.865
Oc1ccc(-c2nnc(-c3ccncc3)s2)c(O)c1 | <-2.567 |  |  | 
Oc1ccc(-c2nnc(-c3cc4ccccc4s3)s2)c(O)c1 | -1.848 |  |  | 
Oc1ccc(-c2nnc(COc3ccccc3Cl)s2)c(O)c1 | -2.061 | -1.494 | -2.037 | -2.108
Oc1ccc(-c2nncs2)c(O)c1 | -2.25 |  |  | 
CCOc1ccc(-c2nnc(-c3ccc(O)cc3O)s2)cc1 | -2.016 |  |  | 
Cc1cccc(-c2nnc(-c3ccc(O)cc3O)s2)c1O | -1.745 | -1.273 | -1.746 | -1.292
CCCCCCCCCCCCCCCc1nnc(-c2ccc(O)cc2O)s1 | <-2.393 |  |  | 
Oc1ccc(-c2nnc(COc3ccc(F)cc3)s2)c(O)c1 | -1.999 |  |  | 
Oc1ccc(-c2nnc(COc3ccc(Cl)cc3Cl)s2)c(O)c1 | -2.41 |  |  | 
O=[N+]([O-])c1ccc(OCc2nnc(-c3ccc(O)cc3O)s2)cc1 | -2.429 |  |  | 

Structure (SMILES) | log(1/ID50) [1] | log(1/ID50) (T47D) | log(1/ID50) [2] | log(1/ID50) (A549)
Oc1ccc(-c2nnc(C(O)c3ccccc3)s2)c(O)c1 (stereo not drawn) | -1.857 | -2.148 | -2.027 | -2.139
Oc1ccc(-c2nnc(CCCCc3nnc(-c4ccc(O)cc4O)s3)s2)c(O)c1 | -1.421 | <-2.354 | -1.025 | -1.42
Oc1cc(O)cc(-c2nnc(-c3ccc(O)cc3O)s2)c1 | -2.182 |  |  | 
Oc1ccc(-c2nnc(-c3ccccn3)s2)c(O)c1 | -2.152 |  |  | 
CC(C)(C)c1ccc(-c2nnc(-c3ccc(O)cc3O)s2)cc1 | -1.057 | -1.088 | -1.139 | -1.593
Oc1ccc(-c2nnc(-c3cccc4ccccc34)s2)c(O)c1 | -1.871 | -1.18 | -1.766 | -1.828
Oc1ccc(-c2nnc(COc3cccc(F)c3)s2)c(O)c1 | -2.093 |  |  | 
Oc1ccc(-c2nnc(-c3ccccc3Br)s2)c(O)c1 | -1.919 | -1.444 | -1.89 | -1.912
Cc1cc(Cl)ccc1OCc1nnc(-c2ccc(O)cc2O)s1 | -1.816 | -1.402 | -2.117 | -1.964
CCOc1cccc(-c2nnc(-c3ccc(O)cc3O)s2)c1 | -2.04 |  |  | 
Oc1ccc(-c2nnc(-c3ccccc3O)s2)c(O)c1 | -2.083 |  |  | 
COc1cccc(COc2nnc(-c3ccc(O)cc3O)s2)c1 | -0.522 | -0.958 | -1.18 | -1.379
Oc1ccc(-c2nnc(-c3ccco3)s2)c(O)c1 | -2.178 | -2.196 | <-2.585 | <-2.585
COc1cc(-c2nnc(-c3ccc(O)cc3O)s2)cc(OC)c1O | -2.027 |  |  | 
CCOc1nnc(-c2ccc(O)cc2O)s1 | -2.305 |  |  | 
COc1nnc(-c2ccc(O)cc2O)s1 | -2.343 |  |  | 
